According to ChEMBL document CHEMBL1201862, “PubChem BioAssay data set” (2004):
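Compound exposure: 48 hours, 5 concentrations, 96-well plates. The concentration for 50% growth inhibition is given as GI50.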 The source made the active and inactive calls. Rule as the data show it: active = GI50 up to about 1.1 µM and inactive = higher.

Legend:
Experiment in all cases: NCI tumour cell line growth inhibition, 48 h
786-0 = tested on: 786-0
A549 = tested on: A549
CAKI-1 = tested on: CAKI-1
EKVX = tested on: EKVX
HOP-62 = tested on: HOP-62
HT-29 = tested on: HT-29
IGROV-1 = tested on: IGROV-1
Malme-3M = tested on: Malme-3M
NCI-H23 = tested on: NCI-H23
NCI-H460 = tested on: NCI-H460
NCI/ADR-RES = tested on: NCI/ADR-RES
OVCAR-8 = tested on: OVCAR-8
SF-539 = tested on: SF-539
SK-MEL-28 = tested on: SK-MEL-28
SN12C = tested on: SN12C
SNB-75 = tested on: SNB-75
U-251 = tested on: U-251
UACC-257 = tested on: UACC-257
UACC-62 = tested on: UACC-62
SNB-19 = tested on: SNB-19

Measured: GI50

CCOC(=O)O/C(=C\c1ccc(OC)cc1)c1c(OC(=O)OCC)n(C(=O)OCC)c2ccccc12
inactive: 786-0 39.5 µM | A549 34.4 µM | CAKI-1 57.9 µM | EKVX 88.9 µM | HOP-62 19.9 µM | HT-29 47.3 µM | IGROV-1 35.7 µM | Malme-3M 58.6 µM | NCI-H23 27.9 µM | NCI-H460 15.1 µM | NCI/ADR-RES 43.9 µM | OVCAR-8 59.2 µM | SF-539 34.8 µM | SK-MEL-28 19.6 µM | SN12C 31.6 µM | SNB-75 25.1 µM | U-251 24.7 µM | UACC-257 34.5 µM | UACC-62 42.7 µM

Cc1ccc(S(=O)(=O)N(CCN)c2cc3c4c(c2)Oc2cccc5c2C4c2c(cccc2O3)O5)cc1
inactive: 786-0 16.6 µM | A549 25.7 µM | EKVX 13.6 µM | HOP-62 15.4 µM | HT-29 14.9 µM | IGROV-1 11 µM | Malme-3M 10.5 µM | NCI-H23 36.1 µM | NCI-H460 > 100 µM | NCI/ADR-RES 10.7 µM | OVCAR-8 11.1 µM | SF-539 18.8 µM | SK-MEL-28 25.2 µM | SN12C 34 µM | SNB-19 29.4 µM | SNB-75 12.6 µM | U-251 19.6 µM | UACC-257 30.5 µM | UACC-62 47.3 µM

Cc1ccc(S(=O)(=O)NC(C(=O)O)C(C)C)cc1 (configuration not stated)
inactive: 786-0 > 100 µM | A549 > 100 µM | CAKI-1 > 100 µM | EKVX > 100 µM | HOP-62 > 100 µM | HT-29 > 100 µM | IGROV-1 > 100 µM | Malme-3M > 100 µM | NCI-H23 > 100 µM | NCI-H460 > 100 µM | NCI/ADR-RES > 100 µM | OVCAR-8 > 100 µM | SK-MEL-28 > 100 µM | SN12C > 100 µM | SNB-19 > 100 µM | SNB-75 > 100 µM | U-251 > 100 µM | UACC-257 > 100 µM | UACC-62 > 100 µM

CCC1CN(C(=O)c2ccccc2)C(Cc2c[nH]c3ccccc23)C(=O)C1CC(=O)OC (configuration not stated)
inactive: CAKI-1 54.7 µM | EKVX 77.4 µM | HOP-62 39 µM | HT-29 28 µM | IGROV-1 72.4 µM | Malme-3M 55.6 µM | NCI-H23 74.6 µM | NCI-H460 43.4 µM | NCI/ADR-RES 86.7 µM | OVCAR-8 79.6 µM | SF-539 > 100 µM | SK-MEL-28 > 100 µM | SN12C > 100 µM | SNB-75 88.3 µM | U-251 41.6 µM | UACC-257 > 100 µM | UACC-62 32.1 µM

CN(CCNC(=O)c1c[nH]c2c1Cc1ccccc1-2)CCNC(=O)c1c[nH]c2c1Cc1ccccc1-2
inactive: 786-0 20.6 µM | A549 43.2 µM | CAKI-1 48.6 µM | EKVX 37.1 µM | HOP-62 26.4 µM | HT-29 35.1 µM | IGROV-1 27.9 µM | Malme-3M 82.8 µM | NCI-H23 41.5 µM | NCI-H460 35.1 µM | NCI/ADR-RES 29.4 µM | OVCAR-8 32.1 µM | SF-539 19.5 µM | SK-MEL-28 48.5 µM | SN12C 66.4 µM | SNB-19 58.2 µM | U-251 18.5 µM | UACC-257 43.8 µM | UACC-62 18 µM

C1CN(c2nc3c(nnc4nc(N5CCOCC5)sc43)s2)CCO1
inactive: 786-0 > 100 µM | A549 > 100 µM | CAKI-1 > 100 µM | EKVX > 100 µM | HOP-62 > 100 µM | HT-29 > 100 µM | IGROV-1 > 100 µM | Malme-3M 37.2 µM | NCI-H23 > 100 µM | NCI/ADR-RES > 100 µM | OVCAR-8 > 100 µM | SF-539 > 100 µM | SK-MEL-28 > 100 µM | SN12C 96.6 µM | SNB-19 89.1 µM | U-251 60.8 µM | UACC-257 > 100 µM | UACC-62 > 100 µM

C=C1CC2CCCC12C=O (configuration not stated)
inactive: 786-0 > 10 µM | A549 > 10 µM | CAKI-1 > 10 µM | HOP-62 > 10 µM | HT-29 > 10 µM | IGROV-1 > 10 µM | Malme-3M > 10 µM | NCI-H23 > 10 µM | NCI/ADR-RES > 10 µM | OVCAR-8 > 10 µM | SF-539 > 10 µM | SK-MEL-28 > 10 µM | SN12C > 10 µM | SNB-19 > 10 µM | SNB-75 > 10 µM | U-251 > 10 µM | UACC-257 > 10 µM | UACC-62 > 10 µM

O=C1c2ccccc2C(=O)c2c(Nc3cc4c5c(ccc6c7ccc8c9c(cc(Nc%10cccc%11c%10C(=O)c%10ccccc%10C%11=O)c(c3c56)c97)-c3ccccc3C8=O)C(=O)c3ccccc3-4)cccc21
inactive: 786-0 29.2 µM | A549 61.7 µM | CAKI-1 67 µM | EKVX 40.6 µM | HOP-62 17 µM | HT-29 > 100 µM | IGROV-1 24.6 µM | Malme-3M > 100 µM | NCI-H23 > 100 µM | NCI/ADR-RES 49.1 µM | OVCAR-8 25 µM | SK-MEL-28 > 100 µM | SN12C > 100 µM | SNB-19 29.9 µM | SNB-75 17.6 µM | U-251 21.1 µM | UACC-257 > 100 µM | UACC-62 > 100 µM
